Laboratory results from the PolyMetriX glass transition set.

Compound | glass transition temperature
*C(CC(C)C)C(=O)Nc1ccc(Oc2ccc(NC(=O)Nc3ccc(Cc4ccc(NC(=O)Nc5ccc(Oc6ccc(NC(=O)C(CC(C)C)n7c(=O)c8cc9c(=O)n(*)c(=O)c9cc8c7=O)cc6)cc5)cc4)cc3)cc2)cc1 (repeat unit) | 181.40 °C
*CC#CC#CCOc1ccc(C(=O)OCCN(CCOC(=O)c2ccc(O*)cc2)c2ccc(/N=N/c3ccc(/N=N/c4cc(C)c([N+](=O)[O-])c(C)c4)cc3)cc2)cc1 (repeat unit) | 115.00 °C
*CC#CC#CCOc1ccc(C(=O)OCCN(CCOC(=O)c2ccc(O*)cc2)c2ccc(/N=N/c3ccc(C#N)cc3)cc2)cc1 (repeat unit) | 121.00 °C
*CC(=O)NCCCCCCNC(=O)CCc1ccc(O*)cc1 (repeat unit) | 72.00 °C
*CC(=O)Nc1ccc(Cc2ccc(NC(=O)CN3C(=O)c4ccc(C(=O)c5ccc6c(c5)C(=O)N(*)C6=O)cc4C3=O)cc2)cc1 (repeat unit) | 233.00 °C
*CC(=O)Nc1ccc(NC(=O)c2ccc3c(c2)C(=O)N(*)C3=O)cc1 (repeat unit) | 292.00 °C
*CC(=O)Nc1ccc(Oc2ccc(NC(=O)CN3C(=O)c4ccc(C(=O)c5ccc6c(c5)C(=O)N(*)C6=O)cc4C3=O)cc2)cc1 (repeat unit) | 235.00 °C
*CC(=O)Nc1ccc(Oc2ccc(NC(=O)c3ccc4c(c3)C(=O)N(*)C4=O)cc2)cc1 (repeat unit) | 262.00 °C
*CC(=O)Nc1ccc(Oc2ccc(Oc3ccc(NC(=O)c4ccc5c(c4)C(=O)N(*)C5=O)cc3)cc2)cc1 (repeat unit) | 242.00 °C
*CC(=O)Nc1ccc(Oc2cccc(Oc3ccc(NC(=O)c4ccc5c(c4)C(=O)N(*)C5=O)cc3)c2)cc1 (repeat unit) | 220.00 °C
*CC(C)N1C(=O)C2C3C=CC(C4C(=O)N(*)C(=O)C34)C2C1=O (repeat unit) | 212.00 °C
*CC(O)CN(*)c1ccc(/N=N/c2ccc(Cl)cc2)cc1 (repeat unit) | 160.00 °C
*CCC(=O)NCCCCCCNC(=O)CCS* (repeat unit) | 27.00 °C
*CCC(=O)Nc1ccc(Oc2cccc(NC(=O)CCN3C(=O)c4ccc(C(=O)c5ccc6c(c5)C(=O)N(*)C6=O)cc4C3=O)c2)cc1 (repeat unit) | 224.00 °C
*CCC(=O)O* (repeat unit) | -24.00 °C
*CCC(C)CC(=O)O* (repeat unit) | -71.50 °C
*CCC(C)CC(C)(C)CNC(=O)c1ccc(C(=O)N*)cc1 (repeat unit) | 147.00 °C
*CCC(C)CCC(=O)S* (repeat unit) | -50.00 °C
*CCC(C)CCOC(=O)CCCCC(=O)O* (repeat unit) | -78.60 °C
*CCC1CC(=O)N(*)C1=O (repeat unit) | 131.00 °C
*CCCCCCCCCCCCCCCCCCNC(=O)CCc1ccc(CCC(=O)N*)cc1 (repeat unit) | 65.00 °C
*CCCCCCNC(=O)CCP(=O)(CCC(=O)N*)c1ccccc1 (repeat unit) | 29.00 °C
*CCCCCCNC(=O)CCP(=S)(CCC(=O)N*)c1ccccc1 (repeat unit) | 43.00 °C
*CCCCCCNC(=O)CCc1ccc(CC(=O)N*)cc1 (repeat unit) | 87.00 °C

Compound | glass transition temperature
*CCCCCCNC(=O)CCc1ccc(CCC(=O)N*)cc1 (repeat unit) | 85.00 °C
*CCCCOCO* (repeat unit) | -84.00 °C
*CCCS* (repeat unit) | -53.50 °C
*CCN(*)C(=O)C(C)C (repeat unit) | 30.00 °C
*CCN(*)C(=O)C(OC)(c1ccccc1)C(F)(F)F (repeat unit) | 89.00 °C
*CCN(*)C(=O)C1(c2ccc(Cl)cc2)CCC1 (repeat unit) | 112.00 °C
*CCN(*)C(=O)C1CC1 (repeat unit) | 77.00 °C
*CCN(*)C(=O)CCC (repeat unit) | 42.00 °C
*CCN(*)C(=O)CCCC (repeat unit) | 13.00 °C
*CCN(*)C(=O)c1c(F)cc(F)cc1F (repeat unit) | 135.00 °C
*CCN(*)C(=O)c1c(F)cccc1F (repeat unit) | 121.50 °C
*CCN(*)C(=O)c1cc(F)c(F)c(F)c1F (repeat unit) | 97.00 °C
*CCN(*)C(=O)c1cc(F)c(F)cc1F (repeat unit) | 105.00 °C
*CCN(*)C(=O)c1ccc(F)cc1 (repeat unit) | 104.00 °C
*CCN(*)C(=O)c1cccc(F)c1 (repeat unit) | 97.00 °C
*CCN(*)C(=O)c1ccccc1F (repeat unit) | 109.00 °C
*CCN(*)CC (repeat unit) | -32.00 °C
*CCN(*)CCOCCOC (repeat unit) | 16.00 °C
*CCN(*)CC[Si](C)(C)C (repeat unit) | -64.80 °C
*CCN(*)Cc1ccccc1 (repeat unit) | -16.00 °C
*CCN(C)C(=O)CCCCCCCCC(=O)N(*)C (repeat unit) | 0.00 °C
*CCN(CCOC(=O)NCCCCCCNC(=O)O*)c1ccc(/N=N/c2ccc([N+](=O)[O-])cc2)c(C)c1 (repeat unit) | 75.00 °C
*CCN(CCOC(=O)Nc1ccc(C)c(NC(=O)O*)c1)c1ccc(/C=C/c2cc[n+](CCCC)cc2)cc1 (repeat unit) | 121.00 °C
*CCN(CCOC(=O)Nc1ccc(C)c(NC(=O)O*)c1)c1ccc(/N=N/c2ccc(-c3nc4ccc([N+](=O)[O-])cc4n3CC)cc2)cc1 (repeat unit) | 158.00 °C

Compound | glass transition temperature
*CCN(CCOC(=O)Nc1ccc(C)c(NC(=O)O*)c1)c1ccc(/N=N/c2ccc(/N=N/c3cc(OC)c(/N=N/c4ccc([N+](=O)[O-])cc4)cc3OC)c(C)c2)cc1 (repeat unit) | 148.00 °C
*CCN(CCOC(=O)Nc1ccc(C)c(NC(=O)O*)c1)c1ccc(/N=N/c2ccc([N+](=O)[O-])cc2C)cc1 (repeat unit) | 137.00 °C
*CCN(CCOC(=O)c1cc(OCc2cc(OCc3ccccc3)cc(OCc3ccccc3)c2)cc(C(=O)O*)c1)c1ccc(/C=C/c2ccc(/C=C/C3=C(C#N)C(=C(C#N)C#N)OC3(c3ccccc3)C(F)(F)F)s2)cc1 (repeat unit) | 130.00 °C
*CCN(CCOC(=O)c1ccc(C(=O)O*)c(OC)c1)c1ccc(/N=N/c2ccc(-c3nc4ccc([N+](=O)[O-])cc4n3CC)cc2)cc1 (repeat unit) | 146.00 °C
*CCN(CCOC(=O)c1ccc(C(=O)O*)c(OC)c1)c1ccc(/N=N/c2ccc(/C=C/c3nc4ccc([N+](=O)[O-])cc4n3CC)cc2)cc1 (repeat unit) | 173.00 °C
*CCN(CCOC(=O)c1ccc(C(=O)O*)cc1)c1ccc(C=C(C#N)C#N)cc1 (repeat unit) | 127.00 °C
*CCSCc1ccc(Cc2ccc(CSCCOC(=O)CCSCc3ccc(Cc4ccc(CSCCC(=O)O*)cc4)cc3)cc2)cc1 (repeat unit) | 12.00 °C
*CCc1ccc(*)c(Br)c1 (repeat unit) | 80.00 °C
*CCc1ccc(*)c(C#N)c1 (repeat unit) | 90.00 °C
*CCc1ccc(*)c(CC)c1 (repeat unit) | 25.00 °C
*CCc1ccc(*)c(CCCC)c1 (repeat unit) | 20.00 °C
*O[Si](C)(C)CC[Si](*)(C)O[Si](C)(C)C (repeat unit) | -89.00 °C
*Oc1ccc(CC(NC(=O)CCc2ccc(OC(=O)CCCCC(*)=O)cc2)C(=O)OCc2ccccc2)cc1 (repeat unit) | 54.50 °C
*Oc1ccc(CC(NC(=O)CCc2ccc(OC(=O)COCC(*)=O)cc2)C(=O)OCc2ccccc2)cc1 (repeat unit) | 76.00 °C
*Oc1ccc(NC(=O)c2cc(C(=O)Nc3ccc(*)cc3)c(C(=O)OCC)cc2C(=O)OCC)cc1 (repeat unit) | 208.1 °C
*Oc1ccc(NC(=O)c2cc(C(=O)Nc3ccc(Oc4ccc(C5(c6ccc(*)cc6)CC6CCC5C6)cc4)cc3)cc(C(C)(C)C)c2)cc1 (repeat unit) | 272.00 °C
*Oc1ccc(NC(=O)c2cc(C(c3ccc(C(=O)O)c(C(=O)Nc4ccc(Oc5ccc(C(c6ccc(*)cc6)(C(F)(F)F)C(F)(F)F)cc5)cc4)c3)(C(F)(F)F)C(F)(F)F)ccc2C(=O)O)cc1 (repeat unit) | 260.00 °C
*Oc1ccc(NC(=O)c2cc(NC(=O)CCCCCN3C(=O)c4ccccc4C3=O)cc(C(=O)Nc3ccc(*)cc3)c2)cc1 (repeat unit) | 200.00 °C
*Oc1ccc(NC(=O)c2cc(NC(=O)CCN3C(=O)c4ccccc4C3=O)cc(C(=O)Nc3ccc(*)cc3)c2)cc1 (repeat unit) | 240.00 °C
*Oc1ccc(Oc2ccc(NC(=O)c3cc(NC(=O)c4ccc(OC(C)=O)cc4)cc(C(=O)Nc4ccc(*)cc4)c3)cc2)cc1 (repeat unit) | 251.00 °C
*c1ccc(OCCN(C)c2ccc(/C=C/C3=CC(=C4/C(=O)c5ccccc5C4=C(C#N)C#N)/C=C(/C=C/c4ccc(N(C)CCOc5ccc(-c6nc7ccc(Oc8ccc9nc(*)c(-c%10ccccc%10)nc9c8)cc7nc6-c6ccccc6)cc5)cc4)O3)cc2)cc1 (repeat unit) | 260.00 °C
*c1ccc(OCCN(CCOc2ccc(-c3cc(-c4ccccc4)c4cc(Oc5ccc6nc(*)cc(-c7ccccc7)c6c5)ccc4n3)cc2)c2ccc(C(C#N)=C(C#N)C#N)cc2)cc1 (repeat unit) | 175.00 °C
*c1ccc(OCCN(CCOc2ccc(-c3nc4ccc(Oc5ccc6nc(*)c(-c7ccccc7)nc6c5)cc4nc3-c3ccccc3)cc2)c2ccc(/N=N/c3ccc([N+](=O)[O-])cc3)cc2)cc1 (repeat unit) | 199.00 °C
*c1ccc(OCCN(CCOc2ccc(-c3nc4ccc(Oc5ccc6nc(*)c(-c7ccccc7)nc6c5)cc4nc3-c3ccccc3)cc2)c2ccc(/N=N/c3ccc([N+](=O)[O-])cc3C)cc2)cc1 (repeat unit) | 188.00 °C
